Measured values as given in EP2526935A1, “Hydrazidomycins” (Oncotest GmbH, priority 2011, dated 2012).
pIC50: −log10 of the molar value.

Assays:
Assay type in all cases: cell-based
[1] = tested on: panel of 12 human tumor cell lines; experiment: modified propidium iodide cytotoxicity assay, panel of 12 human tumor cell lines; details: for pIC50: geometric mean over panel of 12 human tumor cell lines, read-out: Cytotoxic potency (geometric mean IC50)
Description: (§1) Antiproliferative and cytotoxic assays. A modified propidium iodide assay was used to determine the cytotoxic activity of compounds hydrazidomycin A, B, and C against 12 to 42 cell lines derived from solid human tumors. The test procedure has been as is known in the art. Cell lines tested were derived from patient tumors engrafted as a subcutaneously growing tumor in NMRI nu/nu mice, or obtained from the American Type Culture Collection, Rockville, MD, USA, National Cancer Institute, Bethesda, MD, USA, or Deutsche Sammlung von Mikroorganismen und Zellkulturen, Braunschweig. The IC50 was determined by four parameter non-linear curve fit after plotting compound concentration versus fluorescence intensity, and is given as the concentration of test compound that gives a response (inhibition of cell growth) half way between the top and bottom plateau of the sigmoidal concentration-response curve (i.e. the inflection point of the curve).

[2] = tested on: panel of 42 human tumor cell lines; experiment: modified propidium iodide cytotoxicity assay, panel of 42 human tumor cell lines; details: for pIC50: mean over panel of 42 tumor cell lines, 15 histotypes; for IC50 values in sensitive cell lines, fold lower than the mean IC50 of all cell lines tested: on average, sensitive cell lines versus all cell lines
Description: as §1

22Rv1 = experiment: modified propidium iodide cytotoxicity assay; details: Homo sapiens, Prostate
Description: as §1

BXF 1218L = experiment: modified propidium iodide cytotoxicity assay; details: Homo sapiens, Bladder
Description: as §1

BXF 1352L = experiment: modified propidium iodide cytotoxicity assay; details: Homo sapiens, Bladder
Description: as §1

CAL-27 = experiment: modified propidium iodide cytotoxicity assay; details: Homo sapiens, Head and neck
Description: as §1

CXF 269L = experiment: modified propidium iodide cytotoxicity assay; details: Homo sapiens, Colon
Description: as §1

DIFI = experiment: modified propidium iodide cytotoxicity assay; details: Homo sapiens, Colon
Description: as §1

DU-145 = experiment: modified propidium iodide cytotoxicity assay; details: Homo sapiens, Prostate
Description: as §1

GXF 251L = experiment: modified propidium iodide cytotoxicity assay; details: Homo sapiens, Stomach
Description: as §1

HCT-116 = experiment: modified propidium iodide cytotoxicity assay; details: Homo sapiens, Colon
Description: as §1

HT-29 = experiment: modified propidium iodide cytotoxicity assay; details: Homo sapiens, Colon
Description: as §1

LIXF 575L = experiment: modified propidium iodide cytotoxicity assay; details: Homo sapiens, Liver
Description: as §1

LNCaP = experiment: modified propidium iodide cytotoxicity assay; details: Homo sapiens, Prostate
Description: as §1

LXFA 289L = experiment: modified propidium iodide cytotoxicity assay; details: Homo sapiens, Lung, non-small cell
Description: as §1

LXFA 526L = experiment: modified propidium iodide cytotoxicity assay; details: Homo sapiens, Lung, non-small cell
Description: as §1

LXFA 629L = experiment: modified propidium iodide cytotoxicity assay; details: Homo sapiens, Lung, non-small cell
Description: as §1

LXFL 529L = experiment: modified propidium iodide cytotoxicity assay; details: Homo sapiens, Lung, non-small cell
Description: as §1

LXFL1121L = experiment: modified propidium iodide cytotoxicity assay; details: Homo sapiens, LXFL 1121L, Lung, non-small cell
Description: as §1

MAXF 401NL = experiment: modified propidium iodide cytotoxicity assay; details: Homo sapiens, Breast
Description: as §1

MCF-7 = experiment: modified propidium iodide cytotoxicity assay; details: Homo sapiens, MCF7, Breast
Description: as §1

MDA-MB-231 = experiment: modified propidium iodide cytotoxicity assay; details: Homo sapiens, Breast
Description: as §1

MEXF 1341L = experiment: modified propidium iodide cytotoxicity assay; details: Homo sapiens, Melanoma
Description: as §1

MEXF 276L = experiment: modified propidium iodide cytotoxicity assay; details: Homo sapiens, MEXF276L, Melanoma
Description: as §1

MEXF 462NL = experiment: modified propidium iodide cytotoxicity assay; details: Homo sapiens, Melanoma
Description: as §1

MKN45 = experiment: modified propidium iodide cytotoxicity assay; details: Homo sapiens, MKN-45, Stomach
Description: as §1

NCI-H460 = experiment: modified propidium iodide cytotoxicity assay; details: Homo sapiens, Lung, non-small cell
Description: as §1

NIH:OVCAR-3 = experiment: modified propidium iodide cytotoxicity assay; details: Homo sapiens, Ovary
Description: as §1

OVXF 899L = experiment: modified propidium iodide cytotoxicity assay; details: Homo sapiens, Ovary
Description: as §1

PANC-1 = experiment: modified propidium iodide cytotoxicity assay; details: Homo sapiens, Pancreas
Description: as §1

PAXF 1657L = experiment: modified propidium iodide cytotoxicity assay; details: Homo sapiens, Pancreas
Description: as §1

PAXF 546L = experiment: modified propidium iodide cytotoxicity assay; details: Homo sapiens, Pancreas
Description: as §1

PC-3M = experiment: modified propidium iodide cytotoxicity assay; details: Homo sapiens, Prostate
Description: as §1

PXF 1118L = experiment: modified propidium iodide cytotoxicity assay; details: Homo sapiens, Mesothelioma
Description: as §1

PXF 1752L = experiment: modified propidium iodide cytotoxicity assay; details: Homo sapiens, Mesothelioma
Description: as §1

PXF 698L = experiment: modified propidium iodide cytotoxicity assay; details: Homo sapiens, Mesothelioma
Description: as §1

RKO = experiment: modified propidium iodide cytotoxicity assay; details: Homo sapiens, Colon
Description: as §1

RXF 1781L = experiment: modified propidium iodide cytotoxicity assay; details: Homo sapiens, Kidney
Description: as §1

RXF 393NL = experiment: modified propidium iodide cytotoxicity assay; details: Homo sapiens, Kidney
Description: as §1

RXF 486L = experiment: modified propidium iodide cytotoxicity assay; details: Homo sapiens, Kidney
Description: as §1

Saos-2 = experiment: modified propidium iodide cytotoxicity assay; details: Homo sapiens, Sarcoma
Description: as §1

T-24 = experiment: modified propidium iodide cytotoxicity assay; details: Homo sapiens, Bladder
Description: as §1

TE671 = experiment: modified propidium iodide cytotoxicity assay; details: Homo sapiens, TE-671, Sarcoma
Description: as §1

UXF 1138L = experiment: modified propidium iodide cytotoxicity assay; details: Homo sapiens, Uterus
Description: as §1

Bacillus subtilis = experiment: antimicrobial activity test; details: at a concentration of 1.0 mg/mL
Staphylococcus aureus = experiment: antimicrobial activity test; details: at a concentration of 1.0 mg/mL
Escherichia coli = experiment: antimicrobial activity test; details: at a concentration of 1.0 mg/mL
Pseudomonas aeruginosa = experiment: antimicrobial activity test; details: at a concentration of 1.0 mg/mL
Enterococcus faecalis = experiment: antimicrobial activity test; details: at a concentration of 1.0 mg/mL
Mycobacerium vaccae = experiment: antimicrobial activity test; details: at a concentration of 1.0 mg/mL

Structure (SMILES): CCCCCCC/C=C\CCCCC/C=C\N(NC(=O)COC)C(=O)CCCCCCCCC [Hydrazidomycin B, hydrazidomycin B]
- pIC50 [1]: 5.22
- pIC50 ([2]; Homo sapiens): 4.97
- IC50 values in sensitive cell lines, fold lower than the mean IC50 of all cell lines tested [2]: ~8 fold
- pIC50 (22Rv1): 4.81
- pIC50 (BXF 1218L): 4.71
- pIC50 (BXF 1352L): 4.82
- pIC50 (CAL-27): 4.90
- pIC50 (CXF 269L): 5.23
- pIC50 (DIFI): 4.99
- pIC50 (DU-145): 5.14
- pIC50 (GXF 251L): 5.81
- pIC50 (HCT-116): 4.71
- pIC50 (HT-29): 5.18
- pIC50 (LIXF 575L): 5.13
- pIC50 (LNCaP): 4.85
- pIC50 (LXFA 289L): 4.90
- pIC50 (LXFA 526L): 5.15
- pIC50 (LXFA 629L): 5.85
- pIC50 (LXFL 529L): 4.76
- pIC50 (LXFL1121L): 4.76
- pIC50 (MAXF 401NL): 6.06
- pIC50 (MCF-7): 4.96
- pIC50 (MDA-MB-231): 5.26
- pIC50 (MEXF 1341L): 4.83
- pIC50 (MEXF 276L): 4.74
- pIC50 (MEXF 462NL): 4.69
- pIC50 (MKN45): 4.94
- pIC50 (NCI-H460): 4.76
- pIC50 (NIH:OVCAR-3): 4.73
- pIC50 (OVXF 899L): 4.72
- pIC50 (PANC-1): 5.00
- pIC50 (PAXF 1657L): 4.69
- pIC50 (PAXF 546L): 4.97
- pIC50 (PC-3M): 5.76
- pIC50 (PXF 1118L): 4.52
- pIC50 (PXF 1752L): 4.90
- pIC50 (PXF 698L): 4.84
- pIC50 (RKO): 4.86
- pIC50 (RXF 1781L): 4.99
- pIC50 (RXF 393NL): 4.96
- pIC50 (RXF 486L): 4.67
- pIC50 (Saos-2): 4.74
- pIC50 (T-24): 5.04
- pIC50 (TE671): 4.74
- pIC50 (UXF 1138L): 4.74
- antimicrobial activity (Bacillus subtilis): no antimicrobial activity
- antimicrobial activity (Staphylococcus aureus): no antimicrobial activity
- antimicrobial activity (Escherichia coli): no antimicrobial activity
- antimicrobial activity (Pseudomonas aeruginosa): no antimicrobial activity
- antimicrobial activity (Enterococcus faecalis): no antimicrobial activity
- antimicrobial activity (Mycobacerium vaccae): no antimicrobial activity

Structure (SMILES): CCCCCCCCCCCC/C=C\N(NC(=O)COC)C(=O)CCCCCCCCC [Hydrazidomycin A, hydrazidomycin A]
- pIC50 [1]: 6.43
- pIC50 ([2]; Homo sapiens): 6.07
- pIC50 ([2]; listed as (II)): 6.07
- IC50 values in sensitive cell lines, fold lower than the mean IC50 of all cell lines tested [2]: about 4 fold
- pIC50 (22Rv1): 6.05
- pIC50 (BXF 1218L): 5.61
- pIC50 (BXF 1352L): 5.64
- pIC50 (CAL-27): 6.15
- pIC50 (CXF 269L): 6.65
- pIC50 (DIFI): 6.11
- pIC50 (DU-145): 6.27
- pIC50 (GXF 251L): 6.84
- pIC50 (HCT-116): 6.12
- pIC50 (HT-29): 6.33
- pIC50 (LIXF 575L): 6.46
- pIC50 (LNCaP): 6.02
- pIC50 (LXFA 289L): 5.96
- pIC50 (LXFA 526L): 5.78
- pIC50 (LXFA 629L): 6.61
- pIC50 (LXFL 529L): 5.67
- pIC50 (LXFL1121L): 5.64
- pIC50 (MAXF 401NL): 6.33
- pIC50 (MCF-7): 6.11
- pIC50 (MDA-MB-231): 6.54
- pIC50 (MEXF 1341L): 6.03
- pIC50 (MEXF 276L): 5.80
- pIC50 (MEXF 462NL): 6.12
- pIC50 (MKN45): 6.17
- pIC50 (NCI-H460): 5.64
- pIC50 (NIH:OVCAR-3): 5.96
- pIC50 (OVXF 899L): 5.87
- pIC50 (PANC-1): 6.03
- pIC50 (PAXF 1657L): 5.72
- pIC50 (PAXF 546L): 6.18
- pIC50 (PC-3M): 6.98
- pIC50 (PXF 1118L): 5.62
- pIC50 (PXF 1752L): 5.92
- pIC50 (PXF 698L): 6.01
- pIC50 (RKO): 6.22
- pIC50 (RXF 1781L): 6.01
- pIC50 (RXF 393NL): 5.95
- pIC50 (RXF 486L): 5.79
- pIC50 (Saos-2): 5.74
- pIC50 (TE671): 6.05
- pIC50 (UXF 1138L): 6.05
- antimicrobial activity (Bacillus subtilis): no antimicrobial activity
- antimicrobial activity (Staphylococcus aureus): no antimicrobial activity
- antimicrobial activity (Escherichia coli): no antimicrobial activity
- antimicrobial activity (Pseudomonas aeruginosa): no antimicrobial activity
- antimicrobial activity (Enterococcus faecalis): no antimicrobial activity
- antimicrobial activity (Mycobacerium vaccae): no antimicrobial activity

Structure (SMILES): CCCCC/C=C\C/C=C\CCCC/C=C\N(NC(=O)COC)C(=O)CCCCCCCCC [Hydrazidomycin C, hydrazidomycin C]
- pIC50 [1]: < 5.00
- inhibition of tumor cell growth ([1]; up to a concentration of 10 µM): did not show inhibition of tumor cell growth
- antimicrobial activity (Bacillus subtilis): no antimicrobial activity
- antimicrobial activity (Staphylococcus aureus): no antimicrobial activity
- antimicrobial activity (Escherichia coli): no antimicrobial activity
- antimicrobial activity (Pseudomonas aeruginosa): no antimicrobial activity
- antimicrobial activity (Enterococcus faecalis): no antimicrobial activity
- antimicrobial activity (Mycobacerium vaccae): no antimicrobial activity
